# Read-outs that look alike come from different tables or passages of the source.
# How the values were obtained:
# cyclo-oxygenase = molecular target: T1, cyclo-oxygenase (Ovis aries, UniProt P05979); assay: cyclo-oxygenase assay (oxygen consumption, Clark oxygen electrode); type: biochemical, sheep
# T1 construct: microsomal enzyme fraction, obtained from a 220,000 x g precipitate of a homogenate of sheep vesicular glands; from tissue; host or cells: sheep vesicular glands (lyophilized microsomal fraction, 220,000 x g precipitate)
# T1 sequence (P05979 25-600): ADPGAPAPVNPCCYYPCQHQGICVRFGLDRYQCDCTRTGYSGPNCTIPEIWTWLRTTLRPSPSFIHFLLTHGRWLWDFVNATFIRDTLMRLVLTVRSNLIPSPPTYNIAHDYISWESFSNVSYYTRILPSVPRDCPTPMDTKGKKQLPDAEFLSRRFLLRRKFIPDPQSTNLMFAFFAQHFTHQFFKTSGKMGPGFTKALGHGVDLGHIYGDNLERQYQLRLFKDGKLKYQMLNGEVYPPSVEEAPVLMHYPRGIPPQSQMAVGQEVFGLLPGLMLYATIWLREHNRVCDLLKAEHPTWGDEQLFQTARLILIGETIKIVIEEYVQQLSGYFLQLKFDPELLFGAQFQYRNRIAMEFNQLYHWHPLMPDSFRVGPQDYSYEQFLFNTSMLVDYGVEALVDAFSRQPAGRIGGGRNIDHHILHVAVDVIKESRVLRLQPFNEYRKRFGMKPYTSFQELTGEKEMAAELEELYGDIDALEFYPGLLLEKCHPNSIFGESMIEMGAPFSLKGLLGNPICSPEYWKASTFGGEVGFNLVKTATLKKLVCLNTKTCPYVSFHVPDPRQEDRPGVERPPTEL
# Procedure: In vitro experiments were carried out to determine the I50 value of various cyclo-oxygenase inhibitors. […] These experiments were carried out as described in the general method given below, keeping the enzyme and substrate concentrations constant and using increasing inhibitor concentrations. Determinations at each inhibitor concentrations were carried out in duplicate.
# The cyclo-oxygenase assay was carried out according to the method described by van der Ouderaa et al., "Methods in Enzymology" 86, page 60-68 (Academic Press Inc., 1982).
# 0.1M Tris-HCl (pH 8.0) kept at 25° C. and continuously aerated by bubbling air through the solution.
# 20 mg/ml in toluene kept under nitrogen at -20° C.
# 0.5 ml of stock solution was taken and the toluene removed under a stream of nitrogen. The substrate was suspended in 10 ml of incubation buffer, freshly prepared each day and kept at room temperature.
# 500 mg of dry lyophilized microsomal enzyme fraction, obtained from a 220,000 x g precipitate of a homogenate of sheep vesicular glands, was dispersed in 10 ml of incubation buffer for 5 min. using an Ultra Turrax homogeniser. The suspension was kept in ice throughout the experiment and shaken well before each sample was withdrawn.
# 0.23 mM in distilled water freshly prepared each day and kept on ice.
# 0.1 mM made up in incubation buffer, freshly prepared each day and kept on ice.
# The cyclo-oxygenase activity was measured at 25° C. by monitoring the oxygen consumption as a result of cyclo-oxygenation of the substrate using a Clark oxygen electrode.
# A typical experimental run was carried out as follows.
# The mixture was then stirred for 5 min. to allow temperature equilibrium and to achieve a steady baseline on the chart recorder monitoring the dissolved oxygen concentration. Substrate solution (100 μl) was quickly injected into the cell to start the reaction and the oxygen consumption was typically monitored for 5 min. following addition of substrate.
# The cyclo-oxygenase activity of the sample was calculated from the oxygen consumption curve assuming that maximum deflection of the recorder corresponds to 0.26 mM dissolved oxygen in the buffer and that 2 moles of oxygen are consumed per mole of substrate. The linear part of the sigmoid curve of oxygen consumption was used for initial-rate calculations.
# The experiments were standardised by measuring the activity of the enzyme stock solution before and after each set of kinetic experiments and normalizing results to the mean activity.
# Triclosan was dissolved in ethanol; AN-10 and APCF3-8 were dissolved in polyethyleneglycol (MW 400) and sodium salicylate was used as an aqueous solution. The concentration of the inhibitor solutions were adjusted so that only 10 μl of the inhibitor solution was added.
# Neonatal mouse calvaria [1] = assay: Bone loss in vitro: calcium release from calvaria stimulated with thrombin; type: cell-based
# Procedure: (§1) The experimental method used is fully described in Meghi,S et al. Brit. J. Cancer (1988) 58, pp 17-21. Neonatal mouse calvaria were isolated with minimum trauma and maintained in a nutrient medium appropriate for cell culture (DMEM+15% horse serum) at […] in 100% humidity, the medium also containing the materials under test. The pH was maintained in an atmosphere of 5% CO2. After 24 h the medium was discarded, the calvaria were divided into control and test groups, and the medium was replaced with fresh medium containing the materials under test. Prostaglandin E2 (PGE2, 10^-6 M) was added with or without Triclosan as appropriate to stimulate the release of calcium ions (i.e. bone resorption) from the calvaria. After two days further culture in the test media the release of calcium into the medium from the calvaria was determined by atomic absorption spectroscopy. Calcium release is a measure of bone resorption (i.e. degradation of bone) regulated by the specialised cells (osteoblasts and osteoclasts) on the bone surface. Net calcium release was obtained by subtracting the basal medium calcium level.
# The test method of Example 2 was repeated, using thrombin, however, as bone loss stimulator, and using indomethacin as a cyclo-oxygenase inhibitor as control.
# The procedure of Example 3 was repeated, also using zinc citrate as addition.
# Neonatal mouse calvaria [2] = assay: Bone loss in vitro: calcium release from calvaria stimulated with PGE2; type: cell-based; conditions: Example 2
# Procedure: as §1
# [3] = tested on: Actinobacillus actinomycetemcomitans; assay: MIC-value of Triclosan for periodontal micro organisms; type: cell-based
# [4] = Retention by gingival tissue following topical application; conditions: in vitro and in vivo
# [5] = sheep vesicular gland microsomal enzyme, 8,11,14-eicosatrienoic acid substrate, 25° C., pH 8.0, read-out: I50 (concentration of inhibitor which gives 50% inhibition of cyclo-oxygenase activity)
compound,measurement,setting,value
"CCCCCCCC(=O)c1ccc(O)c(C(=O)Nc2cccc(C(F)(F)F)c2)c1 [APCF3-8, 5-n-octanoyl-'trifluoromethylphenyl-salicylanilide]",IC50,cyclo-oxygenase; [5],240 µM
thrombin,Net Calcium Release,"Neonatal mouse calvaria [1]; Example 3, + thrombin alone",3.9 mg/dL
same,Net Calcium Release,"Neonatal mouse calvaria [1]; Example 4, thrombin alone",2.4 mg/dL
"CCCCC[C@H](O)/C=C/[C@H]1[C@H](O)CC(=O)[C@@H]1C/C=C\CCCC(=O)O [PGE2, Prostaglandin E2]",Net Calcium Release,"Neonatal mouse calvaria [2]; PGE2 10^-6 M alone (positive control), two days culture",3.5 mg/dL
"Oc1cc(Cl)ccc1Oc1ccc(Cl)cc1Cl [Triclosan, 2',4,4'-trichloro-2-hydroxy-diphenyl-ether]",IC50,cyclo-oxygenase,155 µM
same,anti-cyclo-oxygenase activity,cyclo-oxygenase; in words,considerable anti-cyclo-oxygenase activity
same,anti-inflammatory potency compared with the preferred substituted salicylamides,"cyclo-oxygenase; in words, salicylamides of U.S. Pat. No. 4,742,083",much more potent anti-inflammatory agent than the preferred substituted salicylamides
same,MIC-value,[3],0.0005%
same,Net Calcium Release,Neonatal mouse calvaria [2]; + PGE2 (10^-6 M) and 1.10^-5 Triclosan,1.4 mg/dL
same,Net Calcium Release,Neonatal mouse calvaria [2]; + PGE2 (10^-6 M) and 2.5.10^-5 M Triclosan,-0.1 mg/dL
same,Net Calcium Release,"Neonatal mouse calvaria [1]; Example 3, + thrombin and 1.10^-5 M Triclosan",0.2 mg/dL
same,Net Calcium Release,"Neonatal mouse calvaria [1]; Example 3, + thrombin and 5.10^-5 M Triclosan",-0.6 mg/dL
same,Net Calcium Release,"Neonatal mouse calvaria [1]; Example 4, + thrombin and 5.10^-6 M Triclosan",0.75 mg/dL
same,retention by gingival tissue,[4],retained by gingival tissue both in vitro and in vivo
"CCCCCCCCCC(=O)c1ccc(O)c(C(=O)Nc2ccc([N+](=O)[O-])cc2)c1 [AN-10, 5-n-decanoyl-4'nitrosalicylanilide]",IC50,cyclo-oxygenase; [5],180 µM
COc1ccc2c(c1)c(CC(=O)O)c(C)n2C(=O)c1ccc(Cl)cc1 [indomethacin],Net Calcium Release,"Neonatal mouse calvaria [1]; Example 3, + thrombin and 10^-6 M indomethacin",0.4 mg/dL
same,Net Calcium Release,"Neonatal mouse calvaria [1]; Example 4, + thrombin and 10^-6 M indomethacin",0.0 mg/dL
O=C([O-])CC(O)(CC(=O)[O-])C(=O)[O-].O=C([O-])CC(O)(CC(=O)[O-])C(=O)[O-].[Zn+2].[Zn+2].[Zn+2] [zinc citrate],Net Calcium Release,"Neonatal mouse calvaria [1]; Example 4, + thrombin and 1.10^-4 M zinc citrate",1.3 mg/dL
same,Net Calcium Release,"Neonatal mouse calvaria [1]; Example 4, + thrombin and 2.10^-4 M zinc citrate",0.8 mg/dL
same,Net Calcium Release,"Neonatal mouse calvaria [1]; Example 4, + thrombin and 5.10^-5 M zinc citrate",1.4 mg/dL
